Reference: PubChem BioAssay (NCI)
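These data come from cells grown in 96-well plates and exposed to compound for 48 hours at five concentrations. Abbreviation: GI50, concentration required for 50% inhibition of growth. TGI is the concentration that stops growth completely.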

Tests used:
Assay in all cases: inhibition of tumour cell growth, NCI panel, 48 h
A549 NSCLC = system: A549 NSCLC
HCT-15 colon = system: HCT-15 colon
HOP-62 NSCLC = system: HOP-62 NSCLC
KM12 colon = system: KM12 colon
MOLT-4 leukemia = system: MOLT-4 leukemia
NCI-H460 lung = system: NCI-H460 lung
SF-539 CNS = system: SF-539 CNS
SK-OV-3 ovarian = system: SK-OV-3 ovarian
SW-620 colon = system: SW-620 colon
TK-10 renal = system: TK-10 renal

SMILES	TGI (A549 NSCLC)	TGI (HCT-15 colon)	TGI (HOP-62 NSCLC)	TGI (KM12 colon)	TGI (MOLT-4 leukemia)	TGI (NCI-H460 lung)	TGI (SF-539 CNS)	TGI (SK-OV-3 ovarian)	TGI (SW-620 colon)	TGI (TK-10 renal)	GI50 (A549 NSCLC)	GI50 (HCT-15 colon)	GI50 (HOP-62 NSCLC)	GI50 (KM12 colon)	GI50 (MOLT-4 leukemia)	GI50 (NCI-H460 lung)	GI50 (SF-539 CNS)	GI50 (SK-OV-3 ovarian)	GI50 (SW-620 colon)	GI50 (TK-10 renal)
Cc1c(NC(=O)C(=O)N=NC(=O)c2ccncc2)c(O)c2ccccc2c1O	30.2 µM	26.9 µM	40.7 µM	> 100 µM	> 77.8 µM	16.8 µM	33.3 µM	> 88.9 µM	33 µM	> 100 µM	–	–	–	–	–	–	–	–	–	–
O=[N+]([O-])c1ccc(N/N=C\c2cc(Cl)ccc2O)nc1	16.1 µM	> 100 µM	11.9 µM	> 100 µM	> 100 µM	13.6 µM	> 100 µM	37.3 µM	> 100 µM	23.6 µM	2.79 µM	0.735 µM	1.96 µM	1.06 µM	0.51 µM	1.66 µM	3.02 µM	4.25 µM	0.873 µM	2 µM
O=C1C2=C(c3ccccc31)C(c1cccc(Cl)c1)NC(=S)N2 (stereo not drawn)	> 100 µM	> 100 µM	> 100 µM	> 100 µM	> 100 µM	> 100 µM	> 100 µM	> 100 µM	> 100 µM	> 100 µM	–	–	–	–	–	–	–	–	–	–
N[C@H]1C2C3CC4C5CC(C42)C1(c1ccccc1)C53 (stereo partly drawn)	> 100 µM	> 100 µM	> 100 µM	> 100 µM	> 100 µM	> 100 µM	> 100 µM	> 100 µM	> 100 µM	> 100 µM	–	–	–	–	–	–	–	–	–	–
O=[N+]([O-])c1ccc(-c2ccc(/C=N/n3c(-c4ccc(Cl)cc4)n[nH]c3=S)o2)cc1	> 64.6 µM	> 100 µM	> 52.9 µM	61.4 µM	> 100 µM	> 54.7 µM	> 62.7 µM	> 100 µM	> 68.5 µM	> 64.7 µM	–	–	–	–	–	–	–	–	–	–
ClC(=Nc1cccc2ccccc12)N(c1ccccc1)c1ccccc1	> 100 µM	> 100 µM	> 100 µM	> 100 µM	–	90.8 µM	–	> 100 µM	> 100 µM	> 100 µM	–	–	–	–	–	–	–	–	–	–
O=c1c(Cl)nnc2sc3ccccc3n12	> 100 µM	54.3 µM	> 100 µM	> 100 µM	> 100 µM	> 100 µM	> 100 µM	> 100 µM	> 100 µM	90.7 µM	39.7 µM	16.5 µM	67.4 µM	32.3 µM	19.6 µM	37.7 µM	37.5 µM	59.9 µM	47.7 µM	8.15 µM
Cn1nc(-c2ccccc2NC(=O)C(F)(F)F)c(=O)n(C)c1=S	> 100 µM	–	> 100 µM	80.9 µM	> 100 µM	64.1 µM	83.9 µM	> 100 µM	> 100 µM	> 100 µM	–	–	–	–	–	–	–	–	–	–
CCCCCCC(=O)C/C(CCC(=O)N(Cc1ccccc1)Cc1ccccc1)=N\Nc1ccc([N+](=O)[O-])cc1[N+](=O)[O-]	> 100 µM	> 100 µM	> 100 µM	> 100 µM	–	> 100 µM	> 100 µM	> 100 µM	> 100 µM	> 100 µM	–	–	–	–	–	–	–	–	–	–
CC1=COC(=O)c2ccccc2N1	> 100 µM	> 100 µM	> 100 µM	> 100 µM	–	> 100 µM	> 100 µM	> 100 µM	> 100 µM	> 100 µM	–	–	–	–	–	–	–	–	–	–
CC(=O)c1ccc(Nc2cc(-n3ccnc3)nc3ccccc23)cc1	> 100 µM	> 100 µM	29.4 µM	–	58.1 µM	> 100 µM	88.7 µM	> 100 µM	> 100 µM	63 µM	35.3 µM	34.2 µM	4.26 µM	–	10.7 µM	34.2 µM	40.6 µM	> 100 µM	49.1 µM	15.6 µM
CC(=O)[CH-]C(=O)c1ccccc1.CC(=O)[CH-]C(=O)c1ccccc1.CCN(CC)CC[O-].CCN(CC)CC[O-].Cl.[Ti+4]	98.6 µM	> 100 µM	> 100 µM	59.6 µM	59.9 µM	> 100 µM	76.5 µM	> 100 µM	> 100 µM	–	27.9 µM	36.4 µM	37.4 µM	20 µM	16.8 µM	29.8 µM	27.2 µM	32.6 µM	45.9 µM	–
CC(=O)Oc1c(C)n(CCCl)ccc1=O	> 100 µM	> 100 µM	> 100 µM	> 100 µM	> 100 µM	> 100 µM	–	> 100 µM	–	73.8 µM	–	–	–	–	–	–	–	–	–	–
COc1cc2c3c(n(C)c(=O)c2cc1OC)-c1cc2c(cc1/C3=C\CCCCN)OCO2	27.4 µM	> 100 µM	–	7.28 µM	> 100 µM	> 100 µM	6.23 µM	46.7 µM	24.8 µM	17.6 µM	6.26 µM	25.1 µM	–	1.95 µM	5.78 µM	5.02 µM	2.83 µM	17.1 µM	6.36 µM	3.95 µM
COc1ccc(/C(=C/c2cc(OC)c(OC)c(OC)c2)[N+](=O)[O-])cc1	10.3 µM	3.54 µM	5.93 µM	3.99 µM	–	5.23 µM	2.98 µM	17 µM	3.91 µM	3.59 µM	3 µM	1.63 µM	2.64 µM	1.89 µM	–	2.24 µM	1.61 µM	4.96 µM	1.71 µM	1.88 µM
OB([O][Hg][c]1ccccc1)[O][Hg][c]1ccccc1	4.64 µM	0.354 µM	3.39 µM	3.04 µM	0.643 µM	3.06 µM	2.34 µM	2.97 µM	0.5 µM	–	1.83 µM	0.141 µM	1.04 µM	1.59 µM	0.177 µM	0.589 µM	1.09 µM	1.6 µM	0.191 µM	–
